Like-named read-outs stand apart in the source and are kept apart here. Marks after values point to notes of the source that are not given here. Each block holds one molecule with its values, some of them ahead of it.
Columns and labels:
[1] = system: OCT2 and MATE1/2-K; assay: clinical; details: male, human, in vivo, geometric mean; for AUC(0-t): AUC0–8hour; for CL renal: CLr (0–8 h)
[2] = system: OCT2 and MATE1/2‐K; details: at fifth dose of dolutegravir
[3] = molecular target: T1, recombinant NNMT protein (Homo sapiens, UniProt P40261); assay: NNMT activity assay; format: biochemical; details: nicotinamide 100 μM, 37°C, 6 min
T1 sequence (P40261 1-264): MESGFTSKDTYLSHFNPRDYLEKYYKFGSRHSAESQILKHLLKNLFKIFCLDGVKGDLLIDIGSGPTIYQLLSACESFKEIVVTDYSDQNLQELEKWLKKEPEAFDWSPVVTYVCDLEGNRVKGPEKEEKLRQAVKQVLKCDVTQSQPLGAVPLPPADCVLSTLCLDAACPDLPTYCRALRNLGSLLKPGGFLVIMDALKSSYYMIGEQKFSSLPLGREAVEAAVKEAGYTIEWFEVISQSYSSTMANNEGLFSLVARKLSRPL

[4] = format: in vivo, human; details: for Cmax: geometric mean (geometric %CV); for half-life: half‐life after T max
[5] = molecular target: T2, MATE1 (Homo sapiens, UniProt Q96FL8); assay: Inhibition of MATE1-mediated metformin uptake in MATE1-HEK293 cells; format: in vitro ADME; details: K i for MATE1, metformin (10 μM) uptake, 37°C, MATE1-HEK; average of experiments
T2 sequence (Q96FL8 1-570): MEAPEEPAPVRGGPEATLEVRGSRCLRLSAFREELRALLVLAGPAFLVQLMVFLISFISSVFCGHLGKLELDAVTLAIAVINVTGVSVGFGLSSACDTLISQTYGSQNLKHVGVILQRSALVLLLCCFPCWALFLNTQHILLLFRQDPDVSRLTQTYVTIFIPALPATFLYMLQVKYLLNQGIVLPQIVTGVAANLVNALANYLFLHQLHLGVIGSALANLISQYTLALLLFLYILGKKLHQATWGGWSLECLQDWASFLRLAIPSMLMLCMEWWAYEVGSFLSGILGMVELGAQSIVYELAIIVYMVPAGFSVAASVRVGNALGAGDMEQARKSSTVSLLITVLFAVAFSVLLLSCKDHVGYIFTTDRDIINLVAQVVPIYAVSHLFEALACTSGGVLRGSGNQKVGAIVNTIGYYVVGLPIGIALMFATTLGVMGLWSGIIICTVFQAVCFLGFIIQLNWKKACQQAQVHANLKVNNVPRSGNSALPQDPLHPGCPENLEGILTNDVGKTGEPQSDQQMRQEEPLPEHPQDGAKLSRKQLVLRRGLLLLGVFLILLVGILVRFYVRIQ

[6] = molecular target: T3, OCT2 (Homo sapiens, UniProt O15244); assay: Inhibition of OCT2-mediated metformin uptake in OCT2-HEK293 cells; format: in vitro ADME; details: HEK293 cells stably expressing OCT2, pH 7.4, probe metformin (10 μM)
T3 sequence (O15244 1-555): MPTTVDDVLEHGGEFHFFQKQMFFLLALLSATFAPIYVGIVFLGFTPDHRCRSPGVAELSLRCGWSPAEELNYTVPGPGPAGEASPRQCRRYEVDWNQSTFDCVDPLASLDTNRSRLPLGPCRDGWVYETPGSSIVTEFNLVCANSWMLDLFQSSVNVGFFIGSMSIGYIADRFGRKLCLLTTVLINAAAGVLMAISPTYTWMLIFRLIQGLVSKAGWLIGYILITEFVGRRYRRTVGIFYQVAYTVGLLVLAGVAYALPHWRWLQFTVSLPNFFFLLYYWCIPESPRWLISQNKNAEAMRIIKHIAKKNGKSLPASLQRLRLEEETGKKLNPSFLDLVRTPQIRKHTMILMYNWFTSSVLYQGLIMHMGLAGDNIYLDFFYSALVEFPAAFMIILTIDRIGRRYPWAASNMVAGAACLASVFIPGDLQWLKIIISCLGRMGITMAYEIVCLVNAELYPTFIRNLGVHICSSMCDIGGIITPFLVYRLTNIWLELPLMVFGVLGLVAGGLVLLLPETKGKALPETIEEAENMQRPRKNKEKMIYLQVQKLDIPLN

[7] = molecular target: MATE2‐K (Homo sapiens, UniProt Q86VL8); assay: Inhibition of MATE2‐K-mediated metformin uptake in MATE2‐K-HEK293 cells; format: in vitro ADME
[8] = cited from earlier work
[9] = system: OAT1/3; format: in vivo, human
[10] = system: OCT2 and MATE1/2-K; assay: clinical; details: male, human, in vivo; for AUC(0-t): AUC0–24hour, geometric mean; for Cmax: C max of metformin; for Cmax / CL renal: geometric mean (geometric %CV); for CL renal: CLr of metformin (0–24 hour)
[11] = system: OCT2 and MATE1/2‐K; details: for fe of metformin (fraction recovered in the urine): geometric mean (geometric %CV)
[12] = dolutegravir (fifth) + metformin
[13] = dolutegravir (first) + metformin
[14] = male, human, plasma, oral, 50 mg
[15] = 50 mg, with dolutegravir 50 mg BID, fifth dose
[16] = 50 mg, with dolutegravir 50 mg BID, first dose

Chain of MATE2‐K (Q86VL8 1-566 isoform Q86VL8-3): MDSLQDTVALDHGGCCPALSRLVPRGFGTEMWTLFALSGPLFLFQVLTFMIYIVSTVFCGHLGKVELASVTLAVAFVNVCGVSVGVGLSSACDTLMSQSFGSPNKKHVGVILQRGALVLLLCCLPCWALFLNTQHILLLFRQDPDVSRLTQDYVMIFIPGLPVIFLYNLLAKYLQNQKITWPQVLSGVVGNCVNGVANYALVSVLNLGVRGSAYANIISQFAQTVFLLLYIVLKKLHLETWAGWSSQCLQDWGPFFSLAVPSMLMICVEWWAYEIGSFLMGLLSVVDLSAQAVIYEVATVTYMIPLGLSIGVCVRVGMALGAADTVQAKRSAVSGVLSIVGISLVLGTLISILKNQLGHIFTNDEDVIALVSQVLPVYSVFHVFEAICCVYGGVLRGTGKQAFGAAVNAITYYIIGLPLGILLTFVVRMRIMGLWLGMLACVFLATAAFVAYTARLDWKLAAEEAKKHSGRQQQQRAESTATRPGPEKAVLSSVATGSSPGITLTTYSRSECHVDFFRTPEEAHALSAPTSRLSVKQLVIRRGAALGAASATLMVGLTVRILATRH

SMILES: Cn1cnc2c(ncn2[C@@H]2O[C@H](CO)[C@@H](O)[C@H]2O)c1=N [m^1A, N1‐methyladenosine]
AUC(0-t) ([1]; baseline): 0.822 µM·h
AUC(0-t) ([1]; cimetidine 400 mg + metformin): 0.918 µM·h
AUC(0-t) ([1]; cimetidine 800 mg + metformin): 0.984 µM·h
AUC(0-t) ([1]; control (metformin alone)): 0.791 µM·h
AUC(0-t) [1, 12]: 1.12 µM·h
AUC(0-t) [1, 13]: 0.977 µM·h
CL renal ([1]; baseline): 188 mL/min
CL renal ([1]; cimetidine 400 mg + metformin): 198 mL/min
CL renal ([1]; cimetidine 800 mg + metformin): 159 mL/min
CL renal ([1]; control (metformin alone)): 198 mL/min
clearance for tubular secretion remaining (CLr minus creatinine CLr) [2]: 29%

SMILES: CN1CC(=O)NC1=N [Creatinine, creatinine]
AUC(0-t) ([1]; baseline): 641 µM·h
AUC(0-t) ([1]; cimetidine 400 mg + metformin): 669 µM·h
AUC(0-t) ([1]; cimetidine 800 mg + metformin): 689 µM·h
AUC(0-t) ([1]; control (metformin alone)): 600 µM·h
AUC(0-t) [1, 12]: 691 µM·h
AUC(0-t) [1, 13]: 712 µM·h

SMILES: C[C@@H]1CCO[C@H]2Cn3cc(C(=O)NCc4ccc(F)cc4F)c(=O)c(O)c3C(=O)N12 [Dolutegravir]
Ki [5]: 830 nM
Ki at 2 min [6]: 290 ± 40 nM
inhibition of the activity of NNMT ([3]; dolutegravir 30 μM): eliminated the possibility
Ki [7]: 2970 ± 400 nM
elimination half‐life [8]: 13 to 14 h
AUC [4, 14]: 209 µM·h
AUC(0-inf) [4, 14]: 141 µM·h
Cmax ([4]; male, human, plasma, oral, 50 mg, C max up to 12 hours after metformin administration, dolutegravir 50 mg BID, fifth dose): 21.7 µM
Cmax ([4]; male, human, plasma, oral, 50 mg, C max up to 12 hours after metformin administration, dolutegravir 50 mg BID, first dose): 7.07 µM
half-life ([4]; male, human, plasma, oral, 50 mg, dolutegravir 50 mg BID, fifth dose): 16.6 ± 1.7 h
half-life ([4]; male, human, plasma, oral, 50 mg, dolutegravir 50 mg BID, first dose): 13 ± 1.1 h

The next lines start with results.

inhibition of the activity of NNMT ([3]; cimetidine 20 μM): eliminated the possibility
Cmax ([4]; male, human, plasma, oral, 800 mg, maximum plasma concentration (C max), cimetidine 800 mg): 25.7 µM
SMILES: CN/C(=N/CCSCc1nc[nH]c1C)NC#N [Cimetidine]
adverse event ([4]; one subject, cimetidine 800 mg (Period 2), judged to have no causal relationship with the study drug): Vomiting

magnitude of inhibition of CLr ([9]; at fifth dose of dolutegravir): at most 21%
change in CLr ([9]; with cimetidine): no change
SMILES: Cc1ncc(CO)c(C(=O)O)c1O [pyridoxic acid]

AUC(0-t) [10, 15]: 213 µM·h
AUC(0-t) [10, 16]: 123 µM·h
Cmax [10, 15]: 23.8 µM
Cmax [10, 16]: 17 µM
CL renal [10, 15]: 199 mL/min
CL renal [10, 16]: 339 mL/min
AUC(0-t) ([10]; 800 mg, with cimetidine 800 mg): 154 µM·h
Cmax ([10]; 800 mg, with cimetidine 800 mg): 28 µM
CL renal ([10]; 800 mg, with cimetidine 800 mg): 269 mL/min
decrease of CLr of metformin ([11]; cimetidine 400 mg): 15.5%
increase of AUC of metformin ([11]; cimetidine 400 mg): 1.7 times
decrease of CLr of metformin ([11]; cimetidine 800 mg): 42.5%
increase of AUC of metformin ([11]; cimetidine 800 mg): 2.2 times
increase of C max of metformin ([11]; co‐administration of cimetidine 400 mg): 2.1 times
increase of C max of metformin ([11]; co‐administration of cimetidine 800 mg): 2.7 times
decrease of CLr of metformin ([11]; dolutegravir fifth dose): 56.9%
decrease of CLr of metformin ([11]; dolutegravir first dose): 26.8%
increase of AUC of metformin ([11]; fifth dose of dolutegravir): 3.0 times
increase of C max of metformin ([11]; fifth dose of dolutegravir): 2.3 times
increase of AUC of metformin ([11]; first dose of dolutegravir): 1.8 times
increase of C max of metformin ([11]; first dose of dolutegravir): 1.6 times
fe of metformin (fraction recovered in the urine) ([11]; metformin 500 mg alone (control)): 0.649 (13.7)
fe of metformin (fraction recovered in the urine) ([11]; with cimetidine 400 mg): 0.940 (13.9)***
fe of metformin (fraction recovered in the urine) ([11]; with cimetidine 800 mg): 0.826 (22.1)**
fe of metformin (fraction recovered in the urine) ([11]; with dolutegravir 50 mg BID, fifth dose): 0.844 (20.7)**
fe of metformin (fraction recovered in the urine) ([11]; with dolutegravir 50 mg BID, first dose): 0.828 (20.6)**
SMILES: CN(C)C(=N)N=C(N)N [Metformin]

Source: publication PMC11739737 (Clinical Pharmacology and Therapeutics, 2024)
